The values below are quoted from earlier work in patent EP4631497A1, “LIPOSOMAL COMPOSITION FOR TOPICAL ADMINISTRATION” (priority 2024, dated 2025).

Each structure is given as a SMILES string. Read-outs that look alike come from different tables or passages of the source.

For the compound `O=C1c2c(O)cc(O)cc2O[C@H](c2ccc(O)c(O)c2)[C@H]1O` [Taxifolin], the Wasserlöslichkeit (bei 25°C) was under 1 mg/mL. In the case of `C[C@@H]1O[C@@H](O[C@H]2[C@H](Oc3cc(O)c4c(c3)O[C@H](c3ccc(O)cc3)CC4=O)O[C@H](CO)[C@@H](O)[C@@H]2O)[C@H](O)[C@H](O)[C@H]1O` [Naringin], the Wasserlöslichkeit (water) was under 1 mg/mL. `O=C(CCc1ccc(O)cc1)c1c(O)cc(O)cc1O` [Phloretin]: the Wasserlöslichkeit (bei 25°C) is reported as < 0,1 mg/ml.

On to `Oc1ccc(C=Cc2cc(O)cc(O)c2)cc1` [Resveratrol], for which the Wasserlöslichkeit (bei 25°C) is < 0,1 mg/ml.
